Assay results published in ChEMBL document CHEMBL5104202, “Structure-Uptake Relationship Studies of Oxazolidinones in Gram-Negative ESKAPE Pathogens” (J Med Chem, 2022).

Legend:
Assay type in all cases: functional, organism-based
Pseudomonas aeruginosa [1] = assay: Antibacterial activity against efflux pump lacking/recombinant OM pore producing Pseudomonas aeruginosa assessed as inhibition of bacterial growth
Escherichia coli [2] = assay: Antibacterial activity against efflux pump lacking/recombinant OM pore producing Escherichia coli assessed as inhibition of bacterial growth
Pseudomonas aeruginosa [3] = assay: Antibacterial activity against recombinant OM pore producing Pseudomonas aeruginosa assessed as inhibition of bacterial growth
Acinetobacter baumannii [4] = assay: Antibacterial activity against wild type Acinetobacter baumannii assessed as inhibition of bacterial growth
Acinetobacter baumannii [5] = assay: Antibacterial activity against efflux pump lacking Acinetobacter baumannii assessed as inhibition of bacterial growth
Acinetobacter baumannii [6] = assay: Antibacterial activity against efflux pump lacking/recombinant OM pore producing Acinetobacter baumannii assessed as inhibition of bacterial growth
Escherichia coli [7] = assay: Antibacterial activity against recombinant OM pore producing Escherichia coli assessed as inhibition of bacterial growth
Acinetobacter baumannii [8] = assay: Antibacterial activity against recombinant OM pore producing Acinetobacter baumannii assessed as inhibition of bacterial growth
Escherichia coli [9] = assay: Antibacterial activity against wild type Escherichia coli assessed as inhibition of bacterial growth
Pseudomonas aeruginosa [10] = assay: Antibacterial activity against wild type Pseudomonas aeruginosa assessed as inhibition of bacterial growth
Pseudomonas aeruginosa [11] = assay: Antibacterial activity against efflux pump lacking Pseudomonas aeruginosa assessed as inhibition of bacterial growth
Escherichia coli [12] = assay: Antibacterial activity against efflux pump lacking Escherichia coli assessed as inhibition of bacterial growth

`CC(C)(C)OC(=O)N(CC#Cc1ccc(N2C[C@H](CO)OC2=O)cc1F)CC(=O)O` was tested, and the IC50 (Pseudomonas aeruginosa [1]) was > 100 µM, the IC50 (Escherichia coli [2]) was > 100 µM and the IC50 (Pseudomonas aeruginosa [3]) was > 100 µM. The IC50 (Acinetobacter baumannii [4]) was > 100 µM, the IC50 (Acinetobacter baumannii [5]) was > 100 µM and the IC50 (Acinetobacter baumannii [6]) was > 100 µM. The IC50 (Escherichia coli [7]) was > 100 µM, the IC50 (Acinetobacter baumannii [8]) was > 100 µM and the IC50 (Escherichia coli [9]) was > 100 µM. The IC50 (Pseudomonas aeruginosa [10]) was > 100 µM, the IC50 (Pseudomonas aeruginosa [11]) was > 100 µM and the IC50 (Escherichia coli [12]) was > 100 µM.
With `Cc1nn(C)c(C)c1C#Cc1ccc(N2C[C@H](CO)OC2=O)cc1F` the IC50 (Pseudomonas aeruginosa [1]) was > 100 µM, the IC50 (Escherichia coli [2]) was 3.4 µM and the IC50 (Pseudomonas aeruginosa [3]) was > 100 µM. For the same molecule, the IC50 (Acinetobacter baumannii [4]) was > 100 µM, the IC50 (Acinetobacter baumannii [5]) was > 100 µM and the IC50 (Acinetobacter baumannii [6]) was > 100 µM. The IC50 (Escherichia coli [7]) was 1.2 µM, the IC50 (Acinetobacter baumannii [8]) was > 100 µM and the IC50 (Escherichia coli [9]) was > 100 µM. The IC50 (Pseudomonas aeruginosa [10]) was > 100 µM, the IC50 (Pseudomonas aeruginosa [11]) was > 100 µM and the IC50 (Escherichia coli [12]) was 86.3 µM.
`O=C1O[C@@H](CO)CN1c1ccc(-c2ccc3c(c2)OCO3)c(F)c1` was tested, and the IC50 (Pseudomonas aeruginosa [1]) was 0.3 µM, the IC50 (Escherichia coli [2]) was 0.3 µM and the IC50 (Pseudomonas aeruginosa [3]) was > 100 µM. For the same molecule, the IC50 (Acinetobacter baumannii [4]) was > 100 µM, the IC50 (Acinetobacter baumannii [5]) was 2.4 µM and the IC50 (Acinetobacter baumannii [6]) was 1.5 µM. The IC50 (Escherichia coli [7]) was 2.4 µM, the IC50 (Acinetobacter baumannii [8]) was > 100 µM and the IC50 (Escherichia coli [9]) was 23 µM. For the same molecule, the IC50 (Pseudomonas aeruginosa [10]) was > 100 µM, the IC50 (Pseudomonas aeruginosa [11]) was 2.4 µM and the IC50 (Escherichia coli [12]) was 0.3 µM.
In the case of `O=C1O[C@@H](CO)CN1c1ccc(-c2ccc(-c3ccncc3)cc2)c(F)c1`, the IC50 (Pseudomonas aeruginosa [1]) is reported as 1 µM, the IC50 (Escherichia coli [2]) is reported as 75.2 µM and the IC50 (Pseudomonas aeruginosa [3]) is reported as > 100 µM. The IC50 (Acinetobacter baumannii [4]) was > 100 µM, the IC50 (Acinetobacter baumannii [5]) was > 100 µM and the IC50 (Acinetobacter baumannii [6]) was > 100 µM. The IC50 (Escherichia coli [7]) was > 100 µM, the IC50 (Acinetobacter baumannii [8]) was > 100 µM and the IC50 (Escherichia coli [9]) was > 100 µM. The IC50 (Pseudomonas aeruginosa [10]) was > 100 µM, the IC50 (Pseudomonas aeruginosa [11]) was 92.1 µM and the IC50 (Escherichia coli [12]) was > 100 µM.
In the case of `O=C1O[C@@H](CO)CN1c1ccc(-c2ccc(F)cc2)c(F)c1`, the IC50 (Pseudomonas aeruginosa [1]) is reported as 2.2 µM, the IC50 (Escherichia coli [2]) is reported as 2.3 µM and the IC50 (Pseudomonas aeruginosa [3]) is reported as 89.8 µM. The IC50 (Acinetobacter baumannii [4]) was > 100 µM, the IC50 (Acinetobacter baumannii [5]) was 8.8 µM and the IC50 (Acinetobacter baumannii [6]) was 9.7 µM. The IC50 (Escherichia coli [7]) was 22.8 µM, the IC50 (Acinetobacter baumannii [8]) was 89.8 µM and the IC50 (Escherichia coli [9]) was 89.1 µM. For the same molecule, the IC50 (Pseudomonas aeruginosa [10]) was > 100 µM, the IC50 (Pseudomonas aeruginosa [11]) was 8.8 µM and the IC50 (Escherichia coli [12]) was 4.3 µM.
For `O=C1O[C@@H](CO)CN1c1ccc(-c2cc(F)cc(F)c2)c(F)c1`, the IC50 (Pseudomonas aeruginosa [1]) was > 100 µM, the IC50 (Escherichia coli [2]) was > 100 µM and the IC50 (Pseudomonas aeruginosa [3]) was > 100 µM. The IC50 (Acinetobacter baumannii [4]) was > 100 µM, the IC50 (Acinetobacter baumannii [5]) was > 100 µM and the IC50 (Acinetobacter baumannii [6]) was > 100 µM. The IC50 (Escherichia coli [7]) was > 100 µM, the IC50 (Acinetobacter baumannii [8]) was > 100 µM and the IC50 (Escherichia coli [9]) was > 100 µM. The IC50 (Pseudomonas aeruginosa [10]) was > 100 µM, the IC50 (Pseudomonas aeruginosa [11]) was > 100 µM and the IC50 (Escherichia coli [12]) was > 100 µM.
For `CC(C)(C)OC(=O)NC(CO)CC#Cc1ccc(N2C[C@H](CO)OC2=O)cc1F` (some centres not stated), the IC50 (Pseudomonas aeruginosa [1]) was > 100 µM, the IC50 (Escherichia coli [2]) was 67.8 µM and the IC50 (Pseudomonas aeruginosa [3]) was > 100 µM. For the same molecule, the IC50 (Acinetobacter baumannii [4]) was > 100 µM, the IC50 (Acinetobacter baumannii [5]) was > 100 µM and the IC50 (Acinetobacter baumannii [6]) was > 100 µM. The IC50 (Escherichia coli [7]) was 97.3 µM, the IC50 (Acinetobacter baumannii [8]) was > 100 µM and the IC50 (Escherichia coli [9]) was > 100 µM. For the same molecule, the IC50 (Pseudomonas aeruginosa [10]) was > 100 µM, the IC50 (Pseudomonas aeruginosa [11]) was > 100 µM and the IC50 (Escherichia coli [12]) was 72.6 µM.
In the case of `CC(C(=O)NCC#Cc1ccc(N2C[C@H](CO)OC2=O)cc1F)N1CCN(C(=O)OC(C)(C)C)CC1` (some centres not stated), the IC50 (Pseudomonas aeruginosa [1]) is reported as > 100 µM, the IC50 (Escherichia coli [2]) is reported as 62.6 µM and the IC50 (Pseudomonas aeruginosa [3]) is reported as > 100 µM. The IC50 (Acinetobacter baumannii [4]) was > 100 µM, the IC50 (Acinetobacter baumannii [5]) was > 100 µM and the IC50 (Acinetobacter baumannii [6]) was > 100 µM. The IC50 (Escherichia coli [7]) was > 100 µM, the IC50 (Acinetobacter baumannii [8]) was > 100 µM and the IC50 (Escherichia coli [9]) was > 100 µM. For the same molecule, the IC50 (Pseudomonas aeruginosa [10]) was > 100 µM, the IC50 (Pseudomonas aeruginosa [11]) was > 100 µM and the IC50 (Escherichia coli [12]) was 50.9 µM.
`O=C1O[C@@H](CO)CN1c1ccc(-c2ccc(SC(F)(F)F)cc2)c(F)c1` was tested, and the IC50 (Pseudomonas aeruginosa [1]) was 6.9 µM, the IC50 (Escherichia coli [2]) was 4.9 µM and the IC50 (Pseudomonas aeruginosa [3]) was > 100 µM. It also gave an IC50 (Acinetobacter baumannii [4]) of 63.5 µM, an IC50 (Acinetobacter baumannii [5]) of 9.1 µM and an IC50 (Acinetobacter baumannii [6]) of 8.1 µM. The IC50 (Escherichia coli [7]) was 9.4 µM, the IC50 (Acinetobacter baumannii [8]) was 23.5 µM and the IC50 (Escherichia coli [9]) was 35.1 µM. The IC50 (Pseudomonas aeruginosa [10]) was > 100 µM, the IC50 (Pseudomonas aeruginosa [11]) was 78.2 µM and the IC50 (Escherichia coli [12]) was 6.9 µM.
In the case of `Nc1cccc(C#Cc2ccc(N3C[C@H](CO)OC3=O)cc2F)n1`, the IC50 (Pseudomonas aeruginosa [1]) is reported as > 100 µM, the IC50 (Escherichia coli [2]) is reported as 20.5 µM and the IC50 (Pseudomonas aeruginosa [3]) is reported as > 100 µM. The IC50 (Acinetobacter baumannii [4]) was > 100 µM, the IC50 (Acinetobacter baumannii [5]) was 83.9 µM and the IC50 (Acinetobacter baumannii [6]) was 76.7 µM. For the same molecule, the IC50 (Escherichia coli [7]) was 19.2 µM, the IC50 (Acinetobacter baumannii [8]) was 49.8 µM and the IC50 (Escherichia coli [9]) was 59 µM. For the same molecule, the IC50 (Pseudomonas aeruginosa [10]) was > 100 µM, the IC50 (Pseudomonas aeruginosa [11]) was > 100 µM and the IC50 (Escherichia coli [12]) was 34.2 µM.
`N[C@@H](Cc1cccc(-c2ccc(N3C[C@H](CO)OC3=O)cc2F)c1)C(=O)O` was tested, and the IC50 (Pseudomonas aeruginosa [1]) was > 100 µM, the IC50 (Escherichia coli [2]) was > 100 µM and the IC50 (Pseudomonas aeruginosa [3]) was > 100 µM. The IC50 (Acinetobacter baumannii [4]) was > 100 µM, the IC50 (Acinetobacter baumannii [5]) was > 100 µM and the IC50 (Acinetobacter baumannii [6]) was > 100 µM. The IC50 (Escherichia coli [7]) was > 100 µM, the IC50 (Acinetobacter baumannii [8]) was > 100 µM and the IC50 (Escherichia coli [9]) was > 100 µM. For the same molecule, the IC50 (Pseudomonas aeruginosa [10]) was > 100 µM, the IC50 (Pseudomonas aeruginosa [11]) was > 100 µM and the IC50 (Escherichia coli [12]) was > 100 µM.
